According to patent US8735412B2, “Sulfoximine-substituted anilinopyrimidine derivatives as CDK inhibitors, the production thereof, and use as medicine” (Bayer Intellectual Property GmbH, priority 2008, dated 2014):
Like-named read-outs stand apart in the source and are kept apart here.

Legend:
[1] = test system: HeLa-MaTu cervical carcinoma cells; assay: Proliferation assay (Assay 4), crystal violet staining; type: cell-based; conditions: Homo sapiens, 96 h, 4 days incubation; read-out: HeLa-MaTu (Assay 4) Concentration for 50% inhibition of cellular proliferation, IC50
Method: 10.4 Assay 4: Proliferation Assay
Cultivated human HeLa-MaTu cervical carcinoma cells (obtained from EPO-GmbH, Berlin) were plated at a density of 3000 cells/measuring point in a 96-well multititer is plate in 200 μl of growth medium (DMEM/HAMS F12, 2 mM L-glutamine, 10% fetal calf serum). After 24 hours the cells of one plate (zero-point plate) were stained with crystal violet (see below), whereas the medium of the other plates was replaced with fresh culture medium (200 μl), to which the test substances had been added at various concentrations (0 μM, and in the range 0.01-30 μM; the final concentration of the solvent dimethylsulfoxide was 0.5%). The cells were incubated for 4 days in the presence of the test substances. Cellular proliferation was determined by staining the cells with crystal violet: the cells were fixed by adding 20 μl/measuring point of an 11% glutaraldehyde solution for 15 min at room temperature. After washing the fixed cells with water three times, the plates were dried at room temperature. The cells were stained by adding 100 μl/measuring point of a 0.1% crystal violet solution (pH adjusted to pH3 by adding acetic acid). After washing the stained cells with water three times, the plates were dried at room temperature. The dye was dissolved by adding 100 μl/measuring point of a 10% acetic acid solution. The extinction was determined photometrically at a wavelength of 595 nm. The percentage change in cell growth was calculated by standardization of the measured values to the extinction values of the zero-point plate (=0%) and the extinction of the untreated (0 μM) cells (=100%). The measured data were standardized to 0% inhibition (cell proliferation without inhibitor) and 100% inhibition (zero-point plate). The IC50 values were determined by means of a 4-parameter fit using the company's own software.

[2] = test system: HeLa-MaTu human cervical carcinoma xenograft; assay: HeLa-MaTu cervical tumor xenograft model on NMRI nude mice; type: in vivo; conditions: oral
Method: HeLa-MaTu (EPO-GmbH, Berlin) human cervical carcinoma cells, which were grown in cell culture, were implanted subcutaneously in the flank of female NMRI nude mice. […] The study was terminated as soon as the tumors in one of the groups reached a size of approx. 150 mm^2.
(§1) The growth-inhibiting effect of the compounds was tested in the HeLa-MaTu cervical tumor model as xenograft on NMRI nude mice. […] Treatment of the established tumors was begun on day 4 after inoculation of the tumors.
as §1, §1
(§2) The study was designed for determining the initial response of a human cervical carcinoma xenograft model to treatments with the 5-Br comparative substance V12. The growth-inhibiting effect of the compounds was tested in the HeLa-MaTu cervical tumor model as xenograft on NMRI nude mice. V12 was dissolved completely in the solubilizer 40% polyethylene glycol 400 (PEG 400)/60% water to a final concentration of 0.7 mg/ml (group 2), 0.85 mg/ml (group 3), or 1.0 mg/ml (group 4). Treatment of the established tumors was begun on day 4 after inoculation of the tumors.
HeLa-MaTu (EPO-GmbH, Berlin) human cervical carcinoma cells, which were grown in cell culture, were implanted subcutaneously in the flank of female NMRI nude mice. […] The study was terminated as soon as the tumors in one of the groups reached a size of approx. 160 mm^2.
(§3) The growth-inhibiting effect of the compounds was tested in the HeLa-MaTu cervical tumor model as xenograft on NMRI nude mice. […] Treatment of the established tumors was begun on day 5 after inoculation of the tumors.
as §3, §3
The following test groups were used: • Group 1: Control, treatment with solubilizer (40% PEG 400/60% water) • Group 2: Compound according to WO 2005/037800 prepared according to preparation V14 disclosed above • (6 mg/kg, oral, 2x daily on day 5, 6, 12, 13, 19, 20) • Group 3: Compound according to WO 2005/037800 prepared according to preparation V14 disclosed above • (8 mg/kg, oral, 2× daily on day 5, 6, 12, 13, 19, 20) • Group 4: Compound according to WO 2005/037800 prepared according to preparation V14 disclosed above • (10 mg/kg, oral, 2× daily on day 5, 6, 12, 13, 19, 20)
as §2, with “substance V14.” for “substance V12.”, “mice. V14” for “mice. V12”, “of 0.6” for “of 0.7”, “2), 0.8” for “2), 0.85”, “day 5” for “day 4”

CDK2/CycE = target: T1, CDK2/CycE (Homo sapiens, UniProt P24941); assay: CDK2/CycE kinase assay (Assay 2); type: biochemical; conditions: 0.5 μM ATP, histon IIIS substrate; read-out: CDK2/CycE (Assay 2) Concentration for 50% inhibition of enzyme activity, IC50
T1 construct: purchased ProQinase GmbH, Freiburg; host or cells: baculovirus-infected insect cells (Sf9)
Method: 10.2 Assay 2: CDK2/CycE Kinase Assay
(§4) Recombinant CDK2 and CycE-GST fusion proteins, purified from baculovirus-infected insect cells (Sf9), were purchased from ProQinase GmbH, Freiburg. Histon IIIS, used as kinase substrate, was purchased from the company Sigma. CDK2/CycE (50 ng/measuring point) was incubated for 10 min at 22° C. in the presence of various concentrations of test substances (0 μM, and within the range 0.01-100 μM) in assay buffer [50 mM Tris/HCl pH8.0, 10 mM MgCl2, 0.1 mM Na ortho-vanadate, 1.0 mM dithiothreitol, 0.5 μM adenosine triphosphate (ATP), 10 μg/measuring point histon IIIS, 0.2 μCi/measuring point ^33P-gamma ATP, 0.05% NP40, 1.25% dimethylsulfoxide]. The reaction was stopped by adding EDTA solution (250 mM, pH8.0, 15 μl/measuring point).
(§5) From each reaction mixture, 15 μl was applied to P30 filter strips (from Wallac), and unincorporated ^33P-ATP was removed by washing the filter strips three times, for 10 min each time, in 0.5% phosphoric acid. After drying the filter strips for 1 hour at 70° C., the filter strips were covered with scintillator strips (MeltiLex™ A, from Wallac) and stoved for 1 hour at 90° C. The amount of incorporated ^33P (substrate phosphorylation) was determined by scintillation measurement in a gamma-radiation measuring instrument (Wallac). The measured data were standardized to 0% inhibition (enzyme reaction without inhibitor) and 100% inhibition (all assay components except enzyme). The IC50 values were determined by means of a 4-parameter fit using the company's own software.

CDK1/CycB = target: T2, CDK1/CycB (Homo sapiens, UniProt P06493); assay: CDK1/CycB kinase assay (Assay 1); type: biochemical; conditions: 0.5 μM ATP, histon IIIS substrate; read-out: CDK1/CycB (Assay 1) Concentration for 50% inhibition of enzyme activity, IC50
T2 construct: purchased ProQinase GmbH, Freiburg; host or cells: baculovirus-infected insect cells (Sf9)
T2 sequence (P06493 whole entry): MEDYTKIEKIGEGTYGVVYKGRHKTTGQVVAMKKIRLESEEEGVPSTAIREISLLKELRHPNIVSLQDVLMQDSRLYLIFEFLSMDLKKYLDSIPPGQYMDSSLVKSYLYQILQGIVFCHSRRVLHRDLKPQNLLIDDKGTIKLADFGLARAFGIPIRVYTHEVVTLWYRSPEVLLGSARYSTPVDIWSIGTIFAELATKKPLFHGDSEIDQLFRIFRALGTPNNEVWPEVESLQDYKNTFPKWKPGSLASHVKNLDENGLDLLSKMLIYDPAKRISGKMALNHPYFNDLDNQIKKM
T2 sequence (P14635 whole entry partner): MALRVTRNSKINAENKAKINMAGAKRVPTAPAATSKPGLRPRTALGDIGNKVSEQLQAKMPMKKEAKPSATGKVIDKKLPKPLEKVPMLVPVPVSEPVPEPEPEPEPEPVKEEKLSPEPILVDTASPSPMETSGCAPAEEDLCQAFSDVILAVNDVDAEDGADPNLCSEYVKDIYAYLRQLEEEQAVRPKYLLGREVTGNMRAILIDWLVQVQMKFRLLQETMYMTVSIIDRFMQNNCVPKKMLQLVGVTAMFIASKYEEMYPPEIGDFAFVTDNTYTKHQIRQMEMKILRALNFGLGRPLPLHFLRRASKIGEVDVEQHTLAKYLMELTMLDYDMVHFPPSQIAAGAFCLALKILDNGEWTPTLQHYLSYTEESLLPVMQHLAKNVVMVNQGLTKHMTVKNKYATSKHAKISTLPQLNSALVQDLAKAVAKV
Method: 10.1 Assay 1: CDK1/CycB Kinase Assay
Recombinant CDK1 and CycB-GST fusion proteins, purified from baculovirus-infected insect cells (Sf9), were purchased from ProQinase GmbH, Freiburg. The histon IIIS used as kinase substrate is commercially available from the company Sigma.
as §4, with “CDK1/CycB (200” for “Recombinant CDK2 and CycE-GST fusion proteins, purified from baculovirus-infected insect cells (Sf9), were purchased from ProQinase GmbH, Freiburg. Histon IIIS, used as kinase substrate, was purchased from the company Sigma. CDK2/CycE (50”
as §5

[3] = 2.5 mg/kg (group 4), 2x daily on day 5, 6, 12, 13, 19, 20, day 20
[4] = 1.5, 2.0, 2.5 mg/kg, 2x daily on day 5, 6, 12, 13, 19, 20
[5] = Mus musculus, 480 h, 2.5 mg/kg (group 4), 2x daily on day 5, 6, 12, 13, 19, 20, day 20, read-out: treatment/control ratio T/C (tumor weight)

C[C@@H](O)[C@@H](C)Oc1nc(Nc2ccc(S(C)(=N)=O)cc2)ncc1C(F)(F)F (mixture of isomers) [Example 2-SI-2, (RS)-S-(4-{[4-{[(1R,2R)-2-Hydroxy-1-methylpropyl]oxy}-5-(trifluoromethyl)pyrimidin-2-yl]amino}phenyl)-S-methylsulfoximide]
IC50 [1]: 8 nM
reduction of tumor weight at the end of the study to % of the control group [2, 3]: 18%
effect on tumor growth (in words) [2, 4]: dose-dependent inhibition of tumor growth
response vs control in vivo at 2.5 mg/kg [2, 5]: 18%

C[C@@H](O)[C@@H](C)Oc1nc(Nc2ccc(S(=N)(=O)C3CC3)cc2)ncc1C(F)(F)F (mixture of isomers) [Example 1-SI-2, (RS)-S-Cyclopropyl-S-(4-{[4-{[(1R,2R)-2-hydroxy-1-methylpropyl]oxy}-5-(trifluoromethyl)pyrimidin-2-yl]amino}phenyl)sulfoximide]
reduction of tumor weight at the end of the study to % of the control group [2, 3]: 19%
effect on tumor growth (in words) [2, 4]: dose-dependent inhibition of tumor growth
response vs control in vivo at 2.5 mg/kg [2, 5]: 19%

CCS(=N)(=O)c1ccc(Nc2ncc(C(F)(F)F)c(N[C@H](C)[C@@H](C)O)n2)cc1 (mixture of isomers) [Example 6-SI-1, (RS)-S-Ethyl-S-(4-{[4-{[(1R,2R)-2-hydroxy-1-methylpropyl]amino}-5-(trifluoromethyl)pyrimidin-2-yl]amino}phenyl)sulfoximide]
IC50 [1]: 16 nM

C[C@@H](Nc1nc(Nc2ccc(S(=N)(=O)C3CC3)cc2)ncc1C(F)(F)F)C(C)(C)O (mixture of isomers) [Example 5-SI-2, (RS)-S-Cyclopropyl-S-(4-{[4-{[(R)-2-hydroxy-1,2-dimethylpropyl]amino}-5-(trifluoromethyl)pyrimidin-2-yl]amino}phenyl)sulfoximide]
effect on tumor growth (in words) ([2]; 5 mg/kg, 2x daily on day 4, 5, 11, 12): greatly inhibited tumor growth
reduction of tumor weight at the end of the study to % of the control group ([2]; 5 mg/kg, 2x daily on day 4, 5, 11, 12, day 17): 7%
response vs control in vivo at 5 mg/kg ([2]; Mus musculus, 408 h, 5 mg/kg, 2x daily on day 4, 5, 11, 12, day 17, read-out: treatment/control ratio T/C (tumor weight)): 7%

C[C@@H](Nc1nc(Nc2ccc(S(C)(=N)=O)cc2)ncc1C(F)(F)F)C(C)(C)O (single isomer, unassigned) [Example 9-SI-1]
IC50 (CDK2/CycE): 5 nM

CCS(=N)(=O)c1ccc(Nc2ncc(C(F)(F)F)c(N[C@H](C)[C@@H](C)O)n2)cc1 (mixture of isomers) [Example 6-SI-2, (RS)-S-Ethyl-S-(4-{[4-{[(1R,2R)-2-hydroxy-1-methylpropyl]amino}-5-(trifluoromethyl)pyrimidin-2-yl]amino}phenyl)sulfoximide]
reduction of tumor weight at the end of the study to % of the control group ([2]; 5 mg/kg (group 4), 2x daily on day 4, 5, 11, 12, 17, 18, day 20): 8%
effect on tumor growth (in words) ([2]; 3, 4, 5 mg/kg, 2x daily on day 4, 5, 11, 12, 17, 18): dose-dependent inhibition of tumor growth
response vs control in vivo at 5 mg/kg ([2]; Mus musculus, 480 h, 5 mg/kg (group 4), 2x daily on day 4, 5, 11, 12, 17, 18, day 20, read-out: treatment/control ratio T/C (tumor weight)): 8%

C[C@@H](Nc1nc(Nc2ccc([S@](=N)(=O)C3CC3)cc2)ncc1Br)C(C)(C)O [Example V11, (R)-S-[4-({5-bromo-4-[(R)-(2-hydroxy-1,2-dimethylpropyl)amino]pyrimidin-2-yl}amino)phenyl]-S-cyclopropyl-sulfoximide]
IC50 (CDK2/CycE): 7 nM
IC50 (CDK1/CycB): 8 nM
IC50 [1]: 13 nM
tolerability of the cyclic treatment regimen ([2]; 8 mg/kg, 2x daily on 2 successive days followed by 5 treatment-free days): well-tolerated
effect on tumor growth (in words) ([2]; 8 mg/kg, 2x daily on day 4, 5, 11, 12): inhibited tumor growth
reduction of tumor weight at the end of the study to % of the control group ([2]; 8 mg/kg, 2x daily on day 4, 5, 11, 12, day 17): 39%
response vs control in vivo at 8 mg/kg ([2]; Mus musculus, 408 h, 8 mg/kg, 2x daily on day 4, 5, 11, 12, day 17, read-out: treatment/control ratio T/C (tumor weight)): 39%

C[C@@H](Nc1nc(Nc2ccc(S(C)(=N)=O)cc2)ncc1C(F)(F)F)C(C)(C)O (single isomer, unassigned) [Example 9-SI-2]
IC50 (CDK2/CycE): 3 nM
